In test [1] the target is Calcium/calmodulin-dependent protein kinase type II subunit alpha (Homo sapiens) (UniProt Q9UQM7).
In test [2] the target is Calcium/calmodulin-dependent protein kinase type II subunit beta (Homo sapiens) (UniProt Q13554).
In test [3] the target is Cyclin-dependent kinase 2 (Homo sapiens, UniProt P24941).
The target in test [4] is Cyclin-dependent kinase 6 (Homo sapiens) (UniProt Q00534).
For test [5], the target named is Cyclin-dependent kinase-like 1 (Homo sapiens) (UniProt Q00532).
Test [6] deals with Dual specificity protein kinase CLK2 (Homo sapiens) (UniProt P49760).
Test [7] deals with Casein kinase I isoform gamma-1 (Homo sapiens) (UniProt Q9HCP0).
Test [8] addresses Casein kinase I isoform gamma-2 (Homo sapiens) (UniProt P78368).
Test [9] deals with Glycogen synthase kinase-3 beta (Homo sapiens, UniProt P49841).
Test [10] addresses T1, Mitogen-activated protein kinase kinase kinase 5 (Homo sapiens) (UniProt Q99683).
T1 sequence (whole entry): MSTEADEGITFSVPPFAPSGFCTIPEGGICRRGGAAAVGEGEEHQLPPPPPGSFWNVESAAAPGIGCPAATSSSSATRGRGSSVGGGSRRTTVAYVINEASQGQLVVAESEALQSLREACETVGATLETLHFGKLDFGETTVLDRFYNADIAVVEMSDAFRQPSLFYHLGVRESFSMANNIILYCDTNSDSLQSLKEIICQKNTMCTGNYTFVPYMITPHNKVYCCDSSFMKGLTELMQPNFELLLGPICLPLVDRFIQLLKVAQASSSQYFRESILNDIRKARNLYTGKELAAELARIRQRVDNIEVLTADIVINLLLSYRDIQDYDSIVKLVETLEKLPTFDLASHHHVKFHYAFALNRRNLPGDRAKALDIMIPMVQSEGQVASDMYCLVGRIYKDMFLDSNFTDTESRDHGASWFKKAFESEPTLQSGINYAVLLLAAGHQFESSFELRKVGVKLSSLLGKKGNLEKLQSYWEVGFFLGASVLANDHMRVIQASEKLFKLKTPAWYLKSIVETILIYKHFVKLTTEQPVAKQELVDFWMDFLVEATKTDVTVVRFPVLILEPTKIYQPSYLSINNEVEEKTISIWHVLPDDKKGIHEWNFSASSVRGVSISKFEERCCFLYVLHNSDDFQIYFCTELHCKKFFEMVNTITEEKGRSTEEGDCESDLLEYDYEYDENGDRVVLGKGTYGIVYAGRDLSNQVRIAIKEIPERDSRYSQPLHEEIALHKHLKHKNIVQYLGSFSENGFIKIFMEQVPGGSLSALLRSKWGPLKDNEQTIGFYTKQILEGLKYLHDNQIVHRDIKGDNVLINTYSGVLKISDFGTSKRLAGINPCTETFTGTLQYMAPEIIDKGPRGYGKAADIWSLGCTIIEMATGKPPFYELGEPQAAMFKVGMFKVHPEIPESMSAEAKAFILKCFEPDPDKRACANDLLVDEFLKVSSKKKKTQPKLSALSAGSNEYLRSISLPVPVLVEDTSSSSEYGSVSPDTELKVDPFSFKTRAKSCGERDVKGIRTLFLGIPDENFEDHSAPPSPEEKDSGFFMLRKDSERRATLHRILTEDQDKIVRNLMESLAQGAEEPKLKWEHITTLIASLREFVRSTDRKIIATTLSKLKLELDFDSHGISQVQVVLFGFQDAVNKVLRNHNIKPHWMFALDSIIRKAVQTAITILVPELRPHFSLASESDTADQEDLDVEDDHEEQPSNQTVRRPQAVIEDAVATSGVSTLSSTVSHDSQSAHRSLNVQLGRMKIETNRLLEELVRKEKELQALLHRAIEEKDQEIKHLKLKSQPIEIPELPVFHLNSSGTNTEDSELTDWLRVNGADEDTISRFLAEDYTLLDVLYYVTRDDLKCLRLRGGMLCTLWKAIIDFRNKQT

Test [11] deals with Mitogen-activated protein kinase 6 (Homo sapiens) (UniProt Q16659).
Test [12] has as its target Serine/threonine-protein kinase 26 (Homo sapiens) (UniProt Q9P289).
The target in test [13] is Serine/threonine-protein kinase OSR1 (Homo sapiens) (UniProt O95747).
The target in test [14] is Serine/threonine-protein kinase PAK 6 (Homo sapiens) (UniProt Q9NQU5).
The target in test [15] is Serine/threonine-protein kinase pim-1 (Homo sapiens) (UniProt P11309).
The target of test [16] is Serine/threonine-protein kinase pim-2 (Homo sapiens, UniProt Q9P1W9).
The target of test [17] is Ribosomal protein S6 kinase alpha-3 (Homo sapiens) (UniProt P51812).
Test [18] deals with Serine/threonine-protein kinase 16 (Homo sapiens) (UniProt O75716).
The target of test [19] is T2, Serine/threonine-protein kinase 17A (Homo sapiens) (UniProt Q9UEE5).
T2 sequence (whole entry): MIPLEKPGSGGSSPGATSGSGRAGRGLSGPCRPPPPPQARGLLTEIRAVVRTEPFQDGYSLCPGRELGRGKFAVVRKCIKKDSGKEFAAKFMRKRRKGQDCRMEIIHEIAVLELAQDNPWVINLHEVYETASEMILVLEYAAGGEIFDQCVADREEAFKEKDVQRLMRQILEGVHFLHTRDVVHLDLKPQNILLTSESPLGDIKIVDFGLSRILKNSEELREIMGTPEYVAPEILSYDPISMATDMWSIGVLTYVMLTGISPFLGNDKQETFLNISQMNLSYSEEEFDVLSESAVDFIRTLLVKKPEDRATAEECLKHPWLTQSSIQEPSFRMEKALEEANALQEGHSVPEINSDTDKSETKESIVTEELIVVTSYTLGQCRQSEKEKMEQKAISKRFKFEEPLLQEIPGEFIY

The target of test [20] is TRAF2 and NCK-interacting protein kinase (Homo sapiens) (UniProt Q9UKE5).
Test [21] concerns the target Serine/threonine-protein kinase VRK2 (Homo sapiens) (UniProt Q86Y07).

As usually defined, the ΔTm is the change in melting temperature against a reference sample.

Ribosomal protein S6 kinase alpha-3 (Homo sapiens), sequence (P51812 whole entry): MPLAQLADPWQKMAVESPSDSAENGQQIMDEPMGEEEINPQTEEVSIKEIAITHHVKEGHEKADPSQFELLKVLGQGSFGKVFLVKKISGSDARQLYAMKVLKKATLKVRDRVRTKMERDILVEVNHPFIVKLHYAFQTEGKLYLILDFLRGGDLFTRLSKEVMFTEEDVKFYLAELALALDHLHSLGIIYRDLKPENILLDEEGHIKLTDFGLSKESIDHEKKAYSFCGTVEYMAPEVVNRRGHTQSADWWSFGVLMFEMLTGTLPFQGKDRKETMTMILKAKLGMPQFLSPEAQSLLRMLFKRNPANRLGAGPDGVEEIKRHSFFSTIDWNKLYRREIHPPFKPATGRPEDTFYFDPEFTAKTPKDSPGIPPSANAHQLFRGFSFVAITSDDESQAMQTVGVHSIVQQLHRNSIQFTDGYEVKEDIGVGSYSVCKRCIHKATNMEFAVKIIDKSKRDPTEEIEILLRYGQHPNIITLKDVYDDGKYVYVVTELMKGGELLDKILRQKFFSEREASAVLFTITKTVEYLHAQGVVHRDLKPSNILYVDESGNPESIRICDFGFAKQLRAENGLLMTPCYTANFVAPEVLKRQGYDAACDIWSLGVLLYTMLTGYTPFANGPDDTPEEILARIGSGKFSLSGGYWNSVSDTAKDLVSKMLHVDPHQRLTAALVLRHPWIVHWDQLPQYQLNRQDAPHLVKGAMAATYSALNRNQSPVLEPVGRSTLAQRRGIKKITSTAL
TRAF2 and NCK-interacting protein kinase (Homo sapiens), sequence (Q9UKE5 whole entry, looked up): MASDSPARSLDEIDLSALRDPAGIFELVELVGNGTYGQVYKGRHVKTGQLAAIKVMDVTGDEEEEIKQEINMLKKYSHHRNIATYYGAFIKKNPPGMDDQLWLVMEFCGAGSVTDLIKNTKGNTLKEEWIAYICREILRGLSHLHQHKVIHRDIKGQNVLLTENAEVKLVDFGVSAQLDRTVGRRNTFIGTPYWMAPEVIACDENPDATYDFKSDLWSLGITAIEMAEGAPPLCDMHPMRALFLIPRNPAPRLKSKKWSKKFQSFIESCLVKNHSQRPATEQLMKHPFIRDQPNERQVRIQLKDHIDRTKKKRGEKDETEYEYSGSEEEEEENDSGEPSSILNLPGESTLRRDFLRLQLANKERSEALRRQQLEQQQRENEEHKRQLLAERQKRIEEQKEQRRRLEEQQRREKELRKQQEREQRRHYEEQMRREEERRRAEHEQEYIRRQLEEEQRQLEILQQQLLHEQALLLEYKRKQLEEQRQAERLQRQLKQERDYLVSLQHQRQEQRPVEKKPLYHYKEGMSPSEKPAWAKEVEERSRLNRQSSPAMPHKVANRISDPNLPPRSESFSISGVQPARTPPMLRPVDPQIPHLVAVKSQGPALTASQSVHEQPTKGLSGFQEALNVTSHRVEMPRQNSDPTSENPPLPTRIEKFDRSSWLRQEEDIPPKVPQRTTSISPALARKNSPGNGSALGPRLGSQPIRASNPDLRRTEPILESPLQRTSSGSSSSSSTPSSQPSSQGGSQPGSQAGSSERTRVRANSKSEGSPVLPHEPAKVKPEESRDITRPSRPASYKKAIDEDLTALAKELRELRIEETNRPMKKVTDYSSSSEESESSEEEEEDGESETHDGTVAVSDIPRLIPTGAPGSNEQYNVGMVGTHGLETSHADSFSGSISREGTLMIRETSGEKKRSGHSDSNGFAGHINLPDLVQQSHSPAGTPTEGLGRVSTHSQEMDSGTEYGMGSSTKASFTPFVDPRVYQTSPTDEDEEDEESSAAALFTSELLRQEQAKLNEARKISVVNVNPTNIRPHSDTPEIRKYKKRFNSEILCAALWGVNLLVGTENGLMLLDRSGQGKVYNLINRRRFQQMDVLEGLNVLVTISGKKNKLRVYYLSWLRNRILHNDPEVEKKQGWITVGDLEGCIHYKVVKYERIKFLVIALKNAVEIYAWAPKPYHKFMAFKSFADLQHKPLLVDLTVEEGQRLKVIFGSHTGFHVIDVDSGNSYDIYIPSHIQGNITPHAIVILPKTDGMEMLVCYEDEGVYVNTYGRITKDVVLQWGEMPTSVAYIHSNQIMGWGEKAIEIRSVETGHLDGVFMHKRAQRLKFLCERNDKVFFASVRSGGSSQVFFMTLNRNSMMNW
Mitogen-activated protein kinase 6 (Homo sapiens), sequence (Q16659 whole entry): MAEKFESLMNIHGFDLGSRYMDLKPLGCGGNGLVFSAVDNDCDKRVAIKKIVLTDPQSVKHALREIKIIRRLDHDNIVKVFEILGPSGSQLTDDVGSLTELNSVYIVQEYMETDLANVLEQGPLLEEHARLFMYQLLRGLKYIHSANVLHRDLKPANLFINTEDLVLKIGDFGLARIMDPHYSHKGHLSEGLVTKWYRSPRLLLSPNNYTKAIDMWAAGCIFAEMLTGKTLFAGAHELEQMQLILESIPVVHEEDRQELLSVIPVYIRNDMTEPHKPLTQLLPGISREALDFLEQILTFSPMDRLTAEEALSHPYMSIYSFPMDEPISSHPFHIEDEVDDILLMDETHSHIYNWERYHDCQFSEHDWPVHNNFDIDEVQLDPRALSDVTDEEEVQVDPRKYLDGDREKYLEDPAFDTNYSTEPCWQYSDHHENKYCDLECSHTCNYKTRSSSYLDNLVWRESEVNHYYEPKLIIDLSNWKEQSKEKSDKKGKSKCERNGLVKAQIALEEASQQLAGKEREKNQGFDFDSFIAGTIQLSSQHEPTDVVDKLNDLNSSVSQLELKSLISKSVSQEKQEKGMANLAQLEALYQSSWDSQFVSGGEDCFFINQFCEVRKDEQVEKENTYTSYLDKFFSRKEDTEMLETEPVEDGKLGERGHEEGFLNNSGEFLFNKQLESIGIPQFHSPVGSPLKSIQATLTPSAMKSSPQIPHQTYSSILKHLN
Serine/threonine-protein kinase pim-2, sequence (Q9P1W9 whole entry, looked up): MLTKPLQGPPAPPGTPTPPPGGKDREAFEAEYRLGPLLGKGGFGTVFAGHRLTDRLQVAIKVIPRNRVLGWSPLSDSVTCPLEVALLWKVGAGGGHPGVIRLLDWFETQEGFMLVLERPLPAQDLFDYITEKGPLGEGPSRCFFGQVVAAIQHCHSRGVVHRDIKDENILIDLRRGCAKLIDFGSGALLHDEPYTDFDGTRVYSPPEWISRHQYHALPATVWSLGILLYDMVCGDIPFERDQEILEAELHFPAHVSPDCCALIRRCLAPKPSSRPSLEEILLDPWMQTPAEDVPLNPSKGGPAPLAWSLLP
Casein kinase I isoform gamma-1 (Homo sapiens), sequence (Q9HCP0 whole entry, looked up, canonical isoform): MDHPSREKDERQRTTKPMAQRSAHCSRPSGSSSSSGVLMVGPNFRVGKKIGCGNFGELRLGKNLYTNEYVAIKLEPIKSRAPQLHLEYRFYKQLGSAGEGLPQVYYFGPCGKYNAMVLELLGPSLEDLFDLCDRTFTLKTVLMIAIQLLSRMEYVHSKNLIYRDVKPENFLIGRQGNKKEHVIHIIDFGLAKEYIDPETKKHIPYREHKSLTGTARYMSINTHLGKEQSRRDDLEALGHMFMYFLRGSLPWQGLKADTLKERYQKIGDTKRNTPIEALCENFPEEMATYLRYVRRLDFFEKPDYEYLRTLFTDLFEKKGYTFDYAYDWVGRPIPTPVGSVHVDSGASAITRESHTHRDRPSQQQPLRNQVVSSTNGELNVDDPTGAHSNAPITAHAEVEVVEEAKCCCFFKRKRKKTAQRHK
Cyclin-dependent kinase 6 (Homo sapiens), sequence (Q00534 whole entry): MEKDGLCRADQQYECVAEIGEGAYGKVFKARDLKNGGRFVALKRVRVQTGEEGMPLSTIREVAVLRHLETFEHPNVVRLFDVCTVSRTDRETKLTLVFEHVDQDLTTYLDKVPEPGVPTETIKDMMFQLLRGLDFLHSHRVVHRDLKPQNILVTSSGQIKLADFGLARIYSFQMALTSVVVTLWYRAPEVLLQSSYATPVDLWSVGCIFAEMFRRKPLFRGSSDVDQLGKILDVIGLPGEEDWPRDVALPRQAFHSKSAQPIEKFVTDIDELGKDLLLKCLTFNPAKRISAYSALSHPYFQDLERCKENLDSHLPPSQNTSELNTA
Serine/threonine-protein kinase PAK 6 (Homo sapiens), sequence (Q9NQU5 whole entry, looked up): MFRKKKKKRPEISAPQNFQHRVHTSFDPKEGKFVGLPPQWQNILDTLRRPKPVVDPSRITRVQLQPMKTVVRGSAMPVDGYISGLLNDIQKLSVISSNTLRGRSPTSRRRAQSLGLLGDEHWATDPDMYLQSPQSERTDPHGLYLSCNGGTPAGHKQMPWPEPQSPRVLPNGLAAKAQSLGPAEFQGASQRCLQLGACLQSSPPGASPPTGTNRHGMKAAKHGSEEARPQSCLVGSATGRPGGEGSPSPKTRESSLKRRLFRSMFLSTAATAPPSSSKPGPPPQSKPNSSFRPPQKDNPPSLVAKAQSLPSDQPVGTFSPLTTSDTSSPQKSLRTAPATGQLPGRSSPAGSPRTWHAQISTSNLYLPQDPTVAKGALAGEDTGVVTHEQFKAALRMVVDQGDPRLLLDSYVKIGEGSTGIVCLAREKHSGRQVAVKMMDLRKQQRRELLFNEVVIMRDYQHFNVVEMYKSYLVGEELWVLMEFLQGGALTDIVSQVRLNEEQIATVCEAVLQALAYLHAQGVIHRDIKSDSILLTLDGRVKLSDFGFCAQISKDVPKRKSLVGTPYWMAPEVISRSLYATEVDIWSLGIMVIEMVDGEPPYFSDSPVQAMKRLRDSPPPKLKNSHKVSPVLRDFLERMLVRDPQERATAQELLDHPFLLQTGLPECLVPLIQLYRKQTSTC
Calcium/calmodulin-dependent protein kinase type II subunit alpha (Homo sapiens), sequence (Q9UQM7 whole entry): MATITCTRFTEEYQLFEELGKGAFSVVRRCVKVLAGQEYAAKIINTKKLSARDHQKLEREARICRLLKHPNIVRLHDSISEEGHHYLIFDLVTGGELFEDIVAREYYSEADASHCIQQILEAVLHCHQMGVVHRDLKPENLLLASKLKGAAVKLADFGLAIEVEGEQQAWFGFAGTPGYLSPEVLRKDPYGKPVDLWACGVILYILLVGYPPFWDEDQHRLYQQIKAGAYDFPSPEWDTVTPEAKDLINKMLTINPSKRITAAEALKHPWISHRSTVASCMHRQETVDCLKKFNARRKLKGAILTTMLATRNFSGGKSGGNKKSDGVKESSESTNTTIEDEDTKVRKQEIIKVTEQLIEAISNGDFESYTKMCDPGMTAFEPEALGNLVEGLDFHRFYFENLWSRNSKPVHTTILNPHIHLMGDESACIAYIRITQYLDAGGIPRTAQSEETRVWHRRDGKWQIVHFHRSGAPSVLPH

For the compound `COc1ccc(CNc2nc(N(CCO)CCO)nc3c2ncn3C(C)C)cc1`, the ΔTm in [1] was 0 °C; in [2], 0.3 °C; in [3], 1.6 °C; in test [4], -0.1 °C; in [5] it was 0.3 °C; in test [6], 2.4 °C. The ΔTm in test [7] is 1.8 °C; in test [8] it was 1.6 °C; in test [9] it was 0.8 °C; in test [10], 2 °C; in test [11], -0.4 °C; in test [12], 0.8 °C. Besides, the shift in melting temperature (ΔTm) was 0.4 °C in test [13]; 1.2 °C in [14]; -1 °C in test [15]; 0.3 °C in [16]; 1.7 °C in [17]; 2.3 °C in test [18]. Also, the ΔTm in [19] was -0.2 °C; in [20], 0.5 °C; in test [21] it was 1.4 °C.

`O=c1cc(N2CCOCC2)oc2c1ccc1ccccc12`: the shift in melting temperature (ΔTm) in test [1] amounted to 0.3 °C; in test [2], 0.3 °C; in [3], 0.5 °C; in test [4], 0.2 °C; in [5] it was 0.1 °C; in [6] it was 0.8 °C. Further, the ΔTm was 0.4 °C in test [7]; 0.6 °C in test [8]; 1.1 °C in test [9]; 1.2 °C in test [10]; 0.4 °C in [11]; 0.5 °C in test [12]. For the same compound, the ΔTm in test [13] was 0.5 °C; in test [14], -0.3 °C; in test [15], 1.7 °C; in test [16], 1 °C; in test [17], 0.3 °C; in [18] it was 0.4 °C. Also, the shift in melting temperature (ΔTm) in [19] was 0.6 °C; in test [20], 0.3 °C; in [21], -0.1 °C.

Turning to `c1ccc(-c2n[nH]c3c2oc2ccccc23)cc1`, the thermal shift (ΔTm) in test [1] turned out to be 0.3 °C; in [2] it was 0.6 °C; in [3], 0.7 °C; in test [4], 0.6 °C; in test [5], 0.1 °C; in [6] it was 1.7 °C. The ΔTm in test [7] was 0.8 °C; in test [8] it was 1 °C; in test [9], 0.8 °C; in test [10], 1.4 °C; in [11] it was 0.1 °C; in test [12] it was 0.6 °C. Also, the thermal shift (ΔTm) is 0.8 °C in [13]; -0.3 °C in test [14]; -0.5 °C in test [15]; 1.1 °C in test [16]; 1.1 °C in [17]; 6.8 °C in test [18]. Besides, the ΔTm in test [19] amounted to 1 °C; in test [20] it was 0.4 °C; in test [21] it was 0.6 °C.

Regarding `O=C1NC(=O)c2c1c1c3ccccc3[nH]c1n1cncc21` [ISOGRANULATIMIDE], the ΔTm came out at 3.6 °C in test [1]; 1.2 °C in test [2]; 5.2 °C in test [3]; 2.7 °C in [4]; 3.7 °C in [5]; 4.1 °C in [6]. In addition, the ΔTm in [7] worked out at 4.3 °C; in test [8] it was 3.6 °C; in [9] it was 8.8 °C; in test [10] it was 2.6 °C; in test [11] it was 1.2 °C; in test [12], 2.5 °C. For the same compound, the ΔTm in test [13] is 1.4 °C; in test [14] it was -0.5 °C; in test [15], 9 °C; in [16], 8 °C; in test [17], 2.5 °C; in test [18] it was 7.4 °C. The thermal shift (ΔTm) in test [19] is 1.3 °C; in test [20], 0 °C; in [21] it was 2 °C.

For `COc1ccc2c(c[n+](C)c3c4cc5c(cc4ccc23)OCO5)c1OC` [CHELERYTHRINE CHLORIDE], the thermal shift (ΔTm) in [1] is 0.6 °C; in test [2], 0.1 °C; in test [3], 0.2 °C; in test [4] it was -1 °C; in test [5], -3.5 °C; in test [6] it was -0.2 °C. Moreover, the ΔTm was 0 °C in test [7]; -0.2 °C in test [8]; -1.5 °C in [9]; -0.2 °C in test [10]; -0.3 °C in test [11]; -1 °C in test [12]. In addition, the ΔTm in test [13] is -2.6 °C; in [14], -3.3 °C; in test [15] it was -4.4 °C; in test [16], -3.1 °C; in test [17] it was -0.3 °C; in [18], -0.4 °C. The ΔTm in test [19] is -0.8 °C; in test [20], -1.3 °C; in test [21] it was 0 °C.

With `CCOc1ccc(/C=C2/SC(=O)N(CCN)C2=O)cc1` [HIAZOLIDINEDIONE1], the thermal shift (ΔTm) was -0.2 °C in test [1]; -0.5 °C in test [2]; -0.1 °C in [3]; 0.2 °C in test [4]; 0.3 °C in test [5]; 0.2 °C in test [6]. Moreover, the ΔTm in test [7] is 0.3 °C; in test [8] it was 0.6 °C; in test [9], -1.3 °C; in [10], 0.4 °C; in test [11] it was 0.6 °C; in test [12], -0.3 °C. The ΔTm in test [13] is -0.1 °C; in test [14], -0.5 °C; in test [15], -0.4 °C; in test [16], -0.1 °C; in [17] it was 0 °C; in test [18] it was -0.1 °C. Moreover, the ΔTm in test [19] is -0.6 °C; in test [20], -0.4 °C; in test [21], 0.1 °C.

Values taken from ChEMBL document CHEMBL1145498, “A systematic interaction map of validated kinase inhibitors with Ser/Thr kinases” (Proc Natl Acad Sci U S A, 2007).
